tested on: Male Sprague-Dawley rats; assay: Test I: iron excretion induced in bile duct-cannulated rats (bile and urine iron, bathophenanthroline method); assay type: in vivo; settings: bile duct-cannulated fasted rat; dose 100 mg/kg; bile and urine collected for 24 h
Procedure: Test I: Iron Excretion Induced by Compounds of Formula I or II [Method as Described in Bergeron et al., J. Med. Chem. 34:2072-2078 (1991)]
Male Sprague-Dawley rats averaging 400 g are housed in Nalgene plastic metabolic cages and are given free access to water. The animals are anesthetized with sodium pentobarbital (50 mg/kg), given ip. The bile duct is cannulated with 22 gauge PE 50 tubing which is inserted ca. 2 cm into the duct and tied firmly in place. A skin-tunneling needle is inserted from the shoulder area around the abdominal incision. The cannula is threaded through the needle until it emerges from the shoulder opening. The cannula is then passed from the animal to the swivel inside a metal torque-transmitting tether, which is attached to a rodent jacket. The cannula is directed from the animal to a Gilson microfraction collector by a fluid swivel mounted above the metabolic cage. This system allows the animal to move freely in the cage while continuous bile samples are being collected. Bile samples are collected in plastic disposable tubes at 3 h intervals for 24 h. Urine samples are collected in plastic disposable tubes for 24 h.
Compounds of formula I or II are prepared in 60 % water, 40 % Cremophor RH-40 (v/v).
All animals are fasted for 48 h before the administration of the compound of formula I or II and the fast is maintained throughout the course of the experiment.
The iron indicator solution, solution A, is prepared by diluting a stock aqueous solution of 0.134 mM mercaptoacetic acid and 1.9 mM bathophenanthrolinedisulfonic acid disodium salt with 5 parts water and 5 parts saturated aqueous sodium acetate. Solution B is prepared as above but without the bathophenanthroline.
An equal volume of a 10 % trichloroacetic acid solution in 3 M HCl (solution C) is added to a urine sample (2.5 ml), and the sample heated in a 65° C. bath for 4 h. After filtration through nylon filters, two 1 ml aliquots are removed. Solution A (5 ml) is added to the sample, and solution B (5 ml) is added to the blank. Bile samples are prepared as the urine samples; however, the volumes are reduced. Standard iron curves are generated with each assay. All samples are transferred to polystyrene cuvettes and the absorbance measured at 535 nm.
Compounds of formula I or II are effective in this assay when administered at a dose in the range of from 10 to 200 mg/kg, e.g. 100 to 150 mg/kg. The induced total iron excretion is in the range of about 10 to 1500 μg Fe/kg body weight, e.g. 90 to 1000 μg Fe/kg body weight.

| Structure (SMILES) | induced total iron excretion [μg Fe/kg body weight] |
| --- | --- |
| OCCn1nc(-c2ccccc2O)nc1-c1ccccc1O [Example 1, 3,5-Bis(2-hydroxyphenyl)-1-(2-hydroxyethyl)-1H-[1,2,4]triazole] | 368 |
| CCOC(=O)Cn1nc(-c2ccccc2O)nc1-c1ccccc1O [Example 2, Ethyl [3,5bis(2-hydroxyphenyl)-[1,2,4]triazol-1-yl]acetate] | 91 |
| O=C(O)c1ccc(-n2nc(-c3ccccc3O)nc2-c2ccccc2O)cc1 [Example 5, 4-[3,5-Bis(2-hydroxyphenyl)-[1,2,4]triazol-1-yl]benzoic acid] | 659 |
| O=C(O)Cn1nc(-c2ccccc2O)nc1-c1ccccc1O [Example 22, [3,5-Bis(2-hydroxyphenyl)-[1,2,4]triazol-1-yl]acetic acid] | 147 |
| O=C(Cn1nc(-c2ccccc2O)nc1-c1ccccc1O)NCCO [Example 24, 2-[3,5bis(2-hydroxyphenyl)-(1,2,4]triazol-1-yl]-N-(2-hydroxyethyl)acetamide] | 413 |
| COCCNC(=O)Cn1nc(-c2ccccc2O)nc1-c1ccccc1O [Example 25, 2-[3,5-Bis(2-hydroxyphenyl)-[1,2,4]triazol-1-yl]-N-(2-methoxyethyl)acetamide] | 337 |
| O=C(Cn1nc(-c2ccccc2O)nc1-c1ccccc1O)NCC(O)CO (stereo not drawn) [Example 26, 2-[3,5-Bis(2-hydroxyphenyl)-[1,2,4]triazol-1-yl]-N-(2,3-dihydroxypropyl)-acetamide] | 171 |
| O=C(Cn1nc(-c2ccccc2O)nc1-c1ccccc1O)NCCN1CCOCC1 [Example 27, 2-[3,5-Bis(2-hydroxyphenyl)-[1,2,4]triazol-1-yl]-N-(2-morpholin-4-yl-ethyl)-acetamide] | 451 |
| CN(CCO)C(=O)Cn1nc(-c2ccccc2O)nc1-c1ccccc1O [Example 28, 2-[3,5-Bis(2-hydroxyphenyl)-[1,2,4]triazol-1-yl]-N-(2-hydroxyethyl)-N-methyl-acetamide] | 413 |
| O=C(Cn1nc(-c2ccccc2O)nc1-c1ccccc1O)NCCOCCO [Example 29, 2-[3,5-Bis(2-hydroxyphenyl)-[1,2,4]triazol-1-yl]-N-[2-(2-hydroxyethoxy)ethyl]-acetamide] | 359 |
| O=C(Cn1nc(-c2ccccc2O)nc1-c1ccccc1O)NCCN(CCO)CCO [Example 30, N-{2-[Bis(2-hydroxyethyl)amino]ethyl}-2-[3,5-bis(2-hydroxyphenyl)-[1,2,4]triazol-1-yl]acetamide] | 447 |
| O=C(Cn1nc(-c2ccccc2O)nc1-c1ccccc1O)NC(CO)CO [Example 31, 2-[3,5-Bis(2-hydroxyphenyl)-[1,2,4]triazol-1-yl]-N-(2-hydroxy-1-hydroxymethyl-ethyl)acetamide] | 175 |
| CN(C)C(=O)Cn1nc(-c2ccccc2O)nc1-c1ccccc1O [Example 33, 2-[3,5-Bis(2-hydroxyphenyl)-[1,2,4]triazol-1-yl]-N,N-dimethylacetamide] | 282 |
| O=C(Cn1nc(-c2ccccc2O)nc1-c1ccccc1O)N1CCOCC1 [Example 34, 2-[3,5-Bis(2-hydroxyphenyl)-[1,2,4]triazol-1-yl]-l-morpholin-4-ylethanone] | 204 |
| O=C(Cn1nc(-c2ccccc2O)nc1-c1ccccc1O)N(CCO)CCO [Example 37, 2-[3,5-Bis(2-hydroxyphenyl)-[1,2,4]triazol-1-yl]-N,N-bis(2-hydroxyethyl)-acetamide] | 301 |

same assay, conditions: bile duct-cannulated fasted rat; dose 118 mg/kg; bile and urine collected for 24 h

| Structure (SMILES) | induced total iron excretion [μg Fe/kg body weight] |
| --- | --- |
| CN1CCN(C(=O)Cn2nc(-c3ccccc3O)nc2-c2ccccc2O)CC1 [Example 35, 2-[3,5-Bis(2-hydroxyphenyl)-[1,2,4]triazol-1-yl]-1-(4-methylpiperazin-1-yl)-ethanone] | 293 |

same assay, conditions: bile duct-cannulated fasted rat; dose 119 mg/kg; bile and urine collected for 24 h

| Structure (SMILES) | induced total iron excretion [μg Fe/kg body weight] |
| --- | --- |
| CN(C)CCN(C)C(=O)Cn1nc(-c2ccccc2O)nc1-c1ccccc1O [Example 38, 2-[3,5-Bis(2-hydroxyphenyl)-[1,2,4]triazol-1-yl]-N-(2-dimethylaminoethyl)-N-methylacetamide] | 970 |

same assay, conditions: bile duct-cannulated fasted rat; dose 120 mg/kg; bile and urine collected for 24 h

| Structure (SMILES) | induced total iron excretion [μg Fe/kg body weight] |
| --- | --- |
| Cc1ccc(O)c(-c2nc(-c3cc(C)ccc3O)n(-c3ccc(C(=O)O)cc3)n2)c1 [Example 21, 4-[3,5-Bis(2-hydroxy-5-methylphenyl)-[1,2,4]triazol-1-yl]benzoic acid] | 317 |

same assay, conditions: bile duct-cannulated fasted rat; dose 133 mg/kg; bile and urine collected for 24 h

| Structure (SMILES) | induced total iron excretion [μg Fe/kg body weight] |
| --- | --- |
| O=C(c1ccc(-n2nc(-c3ccccc3O)nc2-c2ccccc2O)cc1)N1CCOCC1 [Example 6, {4-[3,5-Bis(2-hydroxyphenyl)-[1,2,4]triazol-1-yl]-phenyl}morpholin-4-yl-methanone] | 968 |
| O=C(O)c1ccc(-n2nc(-c3cc(Cl)ccc3O)nc2-c2cc(Cl)ccc2O)cc1 [Example 17, 4-[3,5-Bis(5-chloro-2-hydroxyphenyl)-[1,2,4]triazol-1-yl]benzoic acid] | 203 |

tested on: iron-overloaded marmosets (Callithrix jacchus); assay: Test II: iron excretion induced in iron-overloaded marmosets (urine and feces iron); assay type: in vivo; settings: iron-overloaded marmoset, p.o., dose 110.5 mg/kg; 48 h after administration, pretreatment subtracted; one line per animal
Procedure: Test II: Iron Excretion Induced by Compounds of Formula I or II [Method as Described in Bergeron et al., Blood 81:2166-2173 (1993)]
Adult (1 to 11 years old) marmosets (Callithrix jacchus) of both sexes, weighing 300 to 450 g are kept in pairs at 24-27° C. and a relative humidity of at least 60% in a 12-hour light-dark cycle. The animals are maintained on a pellet diet (No. 962 Nafag, Gossau, Switzerland) supplemented with fruit-vegetable mash, enriched with a vitamin-minerals concentrate (No. 9628 Nafag) and milk. Water is available ad libitum.
Iron-overloading procedure: The animals are iron-overloaded by 3 i.p. injections of iron (III) hydroxide polyisomaltose (Anaemex, Ciba-Geigy, Basel, Switzerland) at 14-day intervals (200 mg/kg twice and 100 mg/kg at the third injection). Prior to the first exposure to an iron chelator, the marmosets are rested at least 8 weeks.
Chelators administration: The test compounds are dispersed in 40 % aqueous Cremophor RH 40 (BASF, Ludwigshafen, Germany) for administration. The applied volume is 5 ml/kg body weight.
Iron excretion studies: The monkeys receive a low-iron diet 7 days before and throughout the experiments (4 days). The diet is prepared by mixing 628.9 g of a liquid diet for primates (Nafag No. 9694), 83 g of the corresponding lipid mixture (Nafag No. 9696), 131.3 g dietary fiber (Sanacell, Nafag) and 1.0 L of distilled water. […]

| Structure (SMILES) | induced iron in feces [µg/kg] |
| --- | --- |
| COCCNC(=O)Cn1nc(-c2ccccc2O)nc1-c1ccccc1O [Example 25, 2-[3,5-Bis(2-hydroxyphenyl)-[1,2,4]triazol-1-yl]-N-(2-methoxyethyl)acetamide] | 163.2 |

— patent US6723742B2, “Substituted 3,5-diphenyl-1,2,4-triazoles and their use as pharmaceutical metal chelators” (Novartis AG., priority 1996, dated 2004)
